Assay results from PubChem BioAssay AID1259407 (Chemical Carcinogenesis Research Information System (CCRIS), 2018).
Calls of active or inactive are those of the source. The rule behind the calls is not given here.

System: CCRIS mutagenicity, Ames/micronucleus/aberration tests
Assay: CCRIS mutagenicity studies
Conditions: Test System: AMES SALMONELLA TYPHIMURIUM, Method: PREINCUBATION

In the case of O=C1c2ccccc2C(=O)c2cc(O)ccc21, the mutagenic call (Strain/Indicator: TA98, Metabolic Activation: NONE) is reported as “active; positive”, the mutagenic call (Strain/Indicator: TA98, Metabolic Activation: RAT, LIVER, S-9, AROCLOR 1254 (10%)) is reported as “active; positive” and the mutagenic call (Strain/Indicator: TA100, Metabolic Activation: NONE) is reported as “inactive; negative”. The mutagenic call (Strain/Indicator: TA100, Metabolic Activation: RAT, LIVER, S-9, AROCLOR 1254 (10%)) was “inactive; negative”.
